Experimental data: US20020055639A1, “Pyrazole derivatives as herbicides” (priority 1997, published 2002)

Tested on: Avena
Experiment: Pre-emergence herbicidal action (Example B1)
Type: in vivo
Design: key: 1=total damage; 9=no action; Ratings of from 1 to 4 (especially from 1 to 3) indicate good to very good herbicidal action
Conditions: 2000 g a.i./ha, sprayed immediately after sowing, evaluated after 3 weeks, scale of nine ratings
Description: (§1) Monocotyledonous and dicotyledonous test plants are sown in standard soil in plastics pots. Immediately after sowing, the test compounds, each in the form of an aqueous suspension or emulsion prepared from a 25% emulsifiable concentrate (Example F1, c) in WO 97/34485, pages 9 and 10), are applied by spraying at a rate of application of 2000 g of active ingredient/ha (500 liters water/ha). The test plants are then grown in a greenhouse under optimum conditions. After 3 weeks' test duration, the test is evaluated in accordance with a scale of nine ratings (1=total damage, 9=no action). Ratings of from 1 to 4 (especially from 1 to 3) indicate good to very good herbicidal action.
(§2) Test plants: Avena, Setaria, Sinapis, Stellaria

Compound | Pre-emergence action: Avena (rating)
C#CCn1c(-c2nn(C)c(OC(F)F)c2Cl)c(F)cc(Cl)c1=O [Example 1.100] | 1
Cn1nc(-c2c(F)cc(Cl)c(=O)n2CS(C)(=O)=O)c(Cl)c1OC(F)F [Example 1.153] | 1
CCS(=O)(=O)CCn1c(-c2nn(C)c(OC(F)F)c2Cl)c(F)cc(Cl)c1=O [Example 1.168] | 1
C#CCn1c(-c2nn(CC)c(OC(F)F)c2Cl)c(F)cc(Cl)c1=O [Example 7.100] | 1
Cn1nc(-c2c(F)cc(Cl)c(=O)n2CC(=O)OCc2ccccc2)c(Cl)c1OC(F)F [Example 1.195] | 3
Cn1nc(-c2c(F)cc(Cl)c(=O)n2Cc2ccccc2)c(Cl)c1OC(F)F [Example 1.111] | 2
Cn1nc(-c2c(F)cc(Cl)c(=O)n2CCCc2ccccc2)c(Cl)c1OC(F)F [Example 1.106] | 2

Tested on: Stellaria
Experiment: Pre-emergence herbicidal action (Example B1)
Type: in vivo
Design: key: 1=total damage; 9=no action; Ratings of from 1 to 4 (especially from 1 to 3) indicate good to very good herbicidal action
Conditions: 2000 g a.i./ha, sprayed immediately after sowing, evaluated after 3 weeks, scale of nine ratings
Description: as §1, §2

Compound | Pre-emergence action: Stellaria (rating)
C#CCn1c(-c2nn(C)c(OC(F)F)c2Cl)c(F)cc(Cl)c1=O [Example 1.100] | 1
Cn1nc(-c2c(F)cc(Cl)c(=O)n2CS(C)(=O)=O)c(Cl)c1OC(F)F [Example 1.153] | 1
CCS(=O)(=O)CCn1c(-c2nn(C)c(OC(F)F)c2Cl)c(F)cc(Cl)c1=O [Example 1.168] | 1
C#CCn1c(-c2nn(CC)c(OC(F)F)c2Cl)c(F)cc(Cl)c1=O [Example 7.100] | 1
Cn1nc(-c2c(F)cc(Cl)c(=O)n2CC(=O)OCc2ccccc2)c(Cl)c1OC(F)F [Example 1.195] | 1
Cn1nc(-c2c(F)cc(Cl)c(=O)n2Cc2ccccc2)c(Cl)c1OC(F)F [Example 1.111] | 1
Cn1nc(-c2c(F)cc(Cl)c(=O)n2CCCc2ccccc2)c(Cl)c1OC(F)F [Example 1.106] | 1

Tested on: Sinapis
Experiment: Pre-emergence herbicidal action (Example B1)
Type: in vivo
Design: key: 1=total damage; 9=no action; Ratings of from 1 to 4 (especially from 1 to 3) indicate good to very good herbicidal action
Conditions: 2000 g a.i./ha, sprayed immediately after sowing, evaluated after 3 weeks, scale of nine ratings
Description: as §1, §2

Compound | Pre-emergence action: Sinapis (rating)
C#CCn1c(-c2nn(C)c(OC(F)F)c2Cl)c(F)cc(Cl)c1=O [Example 1.100] | 1
Cn1nc(-c2c(F)cc(Cl)c(=O)n2CS(C)(=O)=O)c(Cl)c1OC(F)F [Example 1.153] | 1
CCS(=O)(=O)CCn1c(-c2nn(C)c(OC(F)F)c2Cl)c(F)cc(Cl)c1=O [Example 1.168] | 1
C#CCn1c(-c2nn(CC)c(OC(F)F)c2Cl)c(F)cc(Cl)c1=O [Example 7.100] | 1
Cn1nc(-c2c(F)cc(Cl)c(=O)n2CC(=O)OCc2ccccc2)c(Cl)c1OC(F)F [Example 1.195] | 1
Cn1nc(-c2c(F)cc(Cl)c(=O)n2Cc2ccccc2)c(Cl)c1OC(F)F [Example 1.111] | 1
Cn1nc(-c2c(F)cc(Cl)c(=O)n2CCCc2ccccc2)c(Cl)c1OC(F)F [Example 1.106] | 1

Tested on: Setaria
Experiment: Pre-emergence herbicidal action (Example B1)
Type: in vivo
Design: key: 1=total damage; 9=no action; Ratings of from 1 to 4 (especially from 1 to 3) indicate good to very good herbicidal action
Conditions: 2000 g a.i./ha, sprayed immediately after sowing, evaluated after 3 weeks, scale of nine ratings
Description: as §1, §2

Compound | Pre-emergence action: Setaria (rating)
C#CCn1c(-c2nn(C)c(OC(F)F)c2Cl)c(F)cc(Cl)c1=O [Example 1.100] | 1
Cn1nc(-c2c(F)cc(Cl)c(=O)n2CS(C)(=O)=O)c(Cl)c1OC(F)F [Example 1.153] | 1
CCS(=O)(=O)CCn1c(-c2nn(C)c(OC(F)F)c2Cl)c(F)cc(Cl)c1=O [Example 1.168] | 1
C#CCn1c(-c2nn(CC)c(OC(F)F)c2Cl)c(F)cc(Cl)c1=O [Example 7.100] | 1
Cn1nc(-c2c(F)cc(Cl)c(=O)n2CC(=O)OCc2ccccc2)c(Cl)c1OC(F)F [Example 1.195] | 1
Cn1nc(-c2c(F)cc(Cl)c(=O)n2Cc2ccccc2)c(Cl)c1OC(F)F [Example 1.111] | 1
Cn1nc(-c2c(F)cc(Cl)c(=O)n2CCCc2ccccc2)c(Cl)c1OC(F)F [Example 1.106] | 1

Tested on: Avena
Experiment: Post-emergence herbicidal action (Example B2)
Type: in vivo
Design: key: 1=total damage; 9=no action; Ratings of from 1 to 4 (especially from 1 to 3) indicate good to very good herbicidal action
Conditions: 2000 g a.i./ha, sprayed at 4- to 6-leaf stage, evaluated after approximately 18 days, scale of nine ratings
Description: (§3) Monocotyledonous and dicotyledonous test plants are grown in a greenhouse in plastics pots containing standard soil and at the 4- to 6-leaf stage are sprayed with an aqueous suspension or emulsion of the test substances of formula I, prepared from a 25% emulsifiable concentrate (Example F1, c) in WO 97/34485, pages 9 and 10), at a rate of application corresponding to 2000 g of active ingredient/ha (500 liters water/ha). The test plants are then grown on in the greenhouse under optimum conditions. After approximately 18 days' test duration, the test is evaluated in accordance with a scale of nine ratings (1=total damage, 9=no action). Ratings of from 1 to 4 (especially from 1 to 3) indicate good to very good herbicidal action.
as §2

Compound | Post-emergence action: Avena (rating)
C#CCn1c(-c2nn(C)c(OC(F)F)c2Cl)c(F)cc(Cl)c1=O [Example 1.100] | 1
Cn1nc(-c2c(F)cc(Cl)c(=O)n2CS(C)(=O)=O)c(Cl)c1OC(F)F [Example 1.153] | 1
CCS(=O)(=O)CCn1c(-c2nn(C)c(OC(F)F)c2Cl)c(F)cc(Cl)c1=O [Example 1.168] | 1
C#CCn1c(-c2nn(CC)c(OC(F)F)c2Cl)c(F)cc(Cl)c1=O [Example 7.100] | 1
Cn1nc(-c2c(F)cc(Cl)c(=O)n2CC(=O)OCc2ccccc2)c(Cl)c1OC(F)F [Example 1.195] | 1
Cn1nc(-c2c(F)cc(Cl)c(=O)n2Cc2ccccc2)c(Cl)c1OC(F)F [Example 1.111] | 2
Cn1nc(-c2c(F)cc(Cl)c(=O)n2CCCc2ccccc2)c(Cl)c1OC(F)F [Example 1.106] | 3

Tested on: Stellaria
Experiment: Post-emergence herbicidal action (Example B2)
Type: in vivo
Design: key: 1=total damage; 9=no action; Ratings of from 1 to 4 (especially from 1 to 3) indicate good to very good herbicidal action
Conditions: 2000 g a.i./ha, sprayed at 4- to 6-leaf stage, evaluated after approximately 18 days, scale of nine ratings
Description: as §3, §2

Compound | Post-emergence action: Stellaria (rating)
C#CCn1c(-c2nn(C)c(OC(F)F)c2Cl)c(F)cc(Cl)c1=O [Example 1.100] | 1
Cn1nc(-c2c(F)cc(Cl)c(=O)n2CS(C)(=O)=O)c(Cl)c1OC(F)F [Example 1.153] | 1
CCS(=O)(=O)CCn1c(-c2nn(C)c(OC(F)F)c2Cl)c(F)cc(Cl)c1=O [Example 1.168] | 1
C#CCn1c(-c2nn(CC)c(OC(F)F)c2Cl)c(F)cc(Cl)c1=O [Example 7.100] | 1
Cn1nc(-c2c(F)cc(Cl)c(=O)n2CC(=O)OCc2ccccc2)c(Cl)c1OC(F)F [Example 1.195] | 1
Cn1nc(-c2c(F)cc(Cl)c(=O)n2Cc2ccccc2)c(Cl)c1OC(F)F [Example 1.111] | 2
Cn1nc(-c2c(F)cc(Cl)c(=O)n2CCCc2ccccc2)c(Cl)c1OC(F)F [Example 1.106] | 1

Tested on: Sinapis
Experiment: Post-emergence herbicidal action (Example B2)
Type: in vivo
Design: key: 1=total damage; 9=no action; Ratings of from 1 to 4 (especially from 1 to 3) indicate good to very good herbicidal action
Conditions: 2000 g a.i./ha, sprayed at 4- to 6-leaf stage, evaluated after approximately 18 days, scale of nine ratings
Description: as §3, §2

Compound | Post-emergence action: Sinapis (rating)
C#CCn1c(-c2nn(C)c(OC(F)F)c2Cl)c(F)cc(Cl)c1=O [Example 1.100] | 1
Cn1nc(-c2c(F)cc(Cl)c(=O)n2CS(C)(=O)=O)c(Cl)c1OC(F)F [Example 1.153] | 1
CCS(=O)(=O)CCn1c(-c2nn(C)c(OC(F)F)c2Cl)c(F)cc(Cl)c1=O [Example 1.168] | 1
C#CCn1c(-c2nn(CC)c(OC(F)F)c2Cl)c(F)cc(Cl)c1=O [Example 7.100] | 1
Cn1nc(-c2c(F)cc(Cl)c(=O)n2CC(=O)OCc2ccccc2)c(Cl)c1OC(F)F [Example 1.195] | 1
Cn1nc(-c2c(F)cc(Cl)c(=O)n2Cc2ccccc2)c(Cl)c1OC(F)F [Example 1.111] | 1
Cn1nc(-c2c(F)cc(Cl)c(=O)n2CCCc2ccccc2)c(Cl)c1OC(F)F [Example 1.106] | 1

Tested on: Setaria
Experiment: Post-emergence herbicidal action (Example B2)
Type: in vivo
Design: key: 1=total damage; 9=no action; Ratings of from 1 to 4 (especially from 1 to 3) indicate good to very good herbicidal action
Conditions: 2000 g a.i./ha, sprayed at 4- to 6-leaf stage, evaluated after approximately 18 days, scale of nine ratings
Description: as §3, §2

Compound | Post-emergence action: Setaria (rating)
C#CCn1c(-c2nn(C)c(OC(F)F)c2Cl)c(F)cc(Cl)c1=O [Example 1.100] | 1
Cn1nc(-c2c(F)cc(Cl)c(=O)n2CS(C)(=O)=O)c(Cl)c1OC(F)F [Example 1.153] | 1
CCS(=O)(=O)CCn1c(-c2nn(C)c(OC(F)F)c2Cl)c(F)cc(Cl)c1=O [Example 1.168] | 1
C#CCn1c(-c2nn(CC)c(OC(F)F)c2Cl)c(F)cc(Cl)c1=O [Example 7.100] | 1
Cn1nc(-c2c(F)cc(Cl)c(=O)n2CC(=O)OCc2ccccc2)c(Cl)c1OC(F)F [Example 1.195] | 1
Cn1nc(-c2c(F)cc(Cl)c(=O)n2Cc2ccccc2)c(Cl)c1OC(F)F [Example 1.111] | 1
Cn1nc(-c2c(F)cc(Cl)c(=O)n2CCCc2ccccc2)c(Cl)c1OC(F)F [Example 1.106] | 3
